Experimental data: ChEMBL document CHEMBL1201862, “PubChem BioAssay data set” (2004)
Calls of active or inactive are those of the source.

How the values were obtained:
Cytochrome P450 2C19 = Cytochrome P450 2C19 (Homo sapiens, UniProt P33261); assay: Cytochrome panel assay with activity outcomes. Panel member name: p450-cyp2c19 Compounds with AC50 equal or less than 10 uM are considered active; assay type: functional
[1] = system: Streptococcus sp. 'group A'; assay: Streptococcus pyogenes SK(-)GAS viability under kanamycin – luminescence, BacTiterGlo, confirmation, counter-screen for streptokinase expression inhibitor project, dose response (AID 1900); assay type: functional, organism-based
Streptococcus = assay: GAS UMAA2166 growth inhibition – luminescence, BacTiterGlo, counter-screen for streptokinase expression inhibitor project, dose response (AID 1915); assay type: functional, organism-based;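 note: potency for reduction of bacterial viability or growth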
Streptokinase A = target: T1, Streptokinase A (Streptococcus pyogenes serotype M1, UniProt P10520); assay: viability-normalized secreted streptokinase activity reduction – plasminogen activation absorbance, OD405, dose response (AID 1914); assay type: functional, Streptococcus pyogenes M1 GAS;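 note: secreted streptokinase activity via plasminogen activation per viability signal from cell pellet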
T1 sequence (P10520 whole entry): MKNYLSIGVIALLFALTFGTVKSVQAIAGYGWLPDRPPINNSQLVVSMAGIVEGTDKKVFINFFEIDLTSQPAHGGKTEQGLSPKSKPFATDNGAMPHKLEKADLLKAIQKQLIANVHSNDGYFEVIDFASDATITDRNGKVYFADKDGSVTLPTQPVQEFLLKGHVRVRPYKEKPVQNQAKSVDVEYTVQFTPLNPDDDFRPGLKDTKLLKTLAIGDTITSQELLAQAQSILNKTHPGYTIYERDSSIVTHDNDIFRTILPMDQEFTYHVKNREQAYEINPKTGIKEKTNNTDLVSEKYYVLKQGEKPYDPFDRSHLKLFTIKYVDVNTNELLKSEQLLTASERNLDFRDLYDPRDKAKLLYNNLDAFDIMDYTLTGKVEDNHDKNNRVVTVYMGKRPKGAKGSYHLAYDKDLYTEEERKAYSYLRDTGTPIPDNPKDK

[2] = NIH3T3 cell viability loss – ATP luminescence, mouse fibroblasts, counter-screen, dose response (AID 2010); assay type: functional, cell-based;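 note: cells exposed to compound for about 90 hours before reading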
[3] = Trypanosoma cruzi growth suppression in host cells – NIH3T3 host cells, beta-gal luminescence, confirmation (AID 2044); assay type: functional, cell-based;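 note: intracellular parasites grown in NIH/3T3 mouse fibroblasts as host cells; luminescent beta-galactosidase reporter signal from transgenic T. cruzi replicating inside host cells; inhibitors lower the luminescence signal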

Cytochrome P450 2C19, sequence (P33261 whole entry): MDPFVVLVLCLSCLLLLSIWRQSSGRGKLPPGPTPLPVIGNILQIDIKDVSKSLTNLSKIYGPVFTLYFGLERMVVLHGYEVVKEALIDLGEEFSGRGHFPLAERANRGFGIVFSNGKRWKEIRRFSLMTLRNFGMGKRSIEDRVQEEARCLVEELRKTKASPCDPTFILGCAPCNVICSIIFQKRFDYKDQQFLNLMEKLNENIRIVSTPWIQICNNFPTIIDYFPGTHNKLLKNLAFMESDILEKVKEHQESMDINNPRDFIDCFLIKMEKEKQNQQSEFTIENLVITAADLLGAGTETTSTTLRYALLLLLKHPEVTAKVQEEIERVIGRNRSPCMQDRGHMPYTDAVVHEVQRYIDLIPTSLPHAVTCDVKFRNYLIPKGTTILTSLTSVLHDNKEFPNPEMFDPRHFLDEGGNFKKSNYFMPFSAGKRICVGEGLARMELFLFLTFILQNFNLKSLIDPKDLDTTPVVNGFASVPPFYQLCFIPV

Structure (SMILES) | EC50 [1] | EC50 (Streptococcus) | EC50 [2] | EC50 [3] | further results
c1ccc(C2CCC(N3CCC(N4CCCCC4)CC3)CC2)cc1 (configuration not stated) | – | – | – | – | AC50 (Cytochrome P450 2C19; read-out: AC50): 31.6 µM (inconclusive)
O=C(O)CC/C(=C\c1cc2c(cc1Br)OCO2)c1nc2ccccc2s1 | 5.71 µM (active) | > 150 µM (not active) | – | – | EC50 (Streptokinase A): 56 µM (active)
Cc1ccccc1N1CCN(S(=O)(=O)c2nnc(NC(=O)c3ccco3)s2)CC1 | 11 µM (active) | 41.7 µM (active) | – | – | EC50 (Streptokinase A): 5.16 µM (active)
CC(C)C[C@@H](C(=O)NC1CCN(Cc2ccccc2)CC1)N1C(=O)N2CCc3c([nH]c4ccccc34)[C@@]2(C)C1=O | – | – | 5.05 µM (active) | 6.88 µM (active) | –
COc1cccc(C(Nc2ccccn2)c2c(NC(=O)c3ccco3)sc(C)c2C)c1 (configuration not stated) | – | – | > 60 µM (not active) | 2.53 µM (active) | –
Cc1cccc(CSC2=NCCN2S(=O)(=O)c2ccc(F)cc2)c1 | 41.8 µM (active) | > 150 µM (not active) | – | – | EC50 (Streptokinase A): 23.2 µM (active)
CCOc1ccc(CCNC(=O)C(CC)n2nc(C)n3c(cc4sccc43)c2=O)cc1OCC (configuration not stated) | – | – | > 60 µM (not active) | 1.31 µM (active) | –
Cn1c(=O)c2nc(CCCCc3nc4c(=O)n(C)c(=S)n(C)c4[nH]3)[nH]c2n(C)c1=S | – | – | – | – | AC50 (Cytochrome P450 2C19): inconclusive
CN(CCOc1ccccc1)CC(=O)Nc1ccc(S(=O)(=O)N2CCCC2)cc1 | – | – | > 60 µM (not active) | 0.695 µM (active) | –
CCOc1ccc2oc(C(=O)NC3CCN(Cc4ccccc4)CC3)c(C)c2c1 | – | – | > 60 µM (not active) | 2 µM (active) | –
Cc1ccc(S(=O)(=O)NCc2cccc([N+](=O)[O-])c2)cc1 | – | – | – | – | AC50 (Cytochrome P450 2C19; read-out: AC50): 2.51 µM (inconclusive)
CC(NCc1ccncc1)C12CC3CC(CC(C3)C1)C2 (configuration not stated) | – | – | > 60 µM (not active) | > 60 µM (not active) | –
OC(CN1CCN(Cc2ccccc2)CC1)c1ccc(Br)cc1 (configuration not stated) | – | – | 10 µM (active) | 0.324 µM (active) | –
Cc1ccc(C(=O)Nc2nc(-c3ccccc3)c(-c3ccccc3)o2)cc1 | 1.27 µM (active) | 2.36 µM (active) | > 60 µM (not active) | 2.48 µM (active) | –
Cc1c(C(=O)N2CCN(S(=O)(=O)c3ccc(F)cc3)CC2)oc2ccccc12 | – | – | > 60 µM (not active) | 0.447 µM (active) | –
CC(C)C(NC(=O)C(c1ccccc1)c1ccccc1)c1nc2ccccc2[nH]1 (configuration not stated) | 1.87 µM (active) | 16 µM (active) | – | – | EC50 (Streptokinase A): > 150 µM (not active)
COc1ccc(C(=O)NNC(=S)NC(=O)c2ccco2)cc1 | 2.98 µM (active) | 12 µM (active) | – | – | EC50 (Streptokinase A): > 150 µM (not active)
CCCCN(CCCC)c1cc(C)nc(-c2ccccc2O)n1 | 19.7 µM (active) | > 150 µM (not active) | – | – | EC50 (Streptokinase A): 5.4 µM (active)
CCCC[C@@H]1C[C@H]1C(NC(=O)c1cccs1)c1ccc(C(F)(F)F)cc1 (some centres not stated) | – | – | – | – | AC50 (Cytochrome P450 2C19): inconclusive
Cc1cc(Cl)c(OCCOCCN2CCCC(C)C2)c(Br)c1 (configuration not stated) | – | – | > 60 µM (not active) | 0.393 µM (active) | –
CN(C)CCCOc1ccc(Cl)cc1Br | – | – | > 60 µM (not active) | 0.535 µM (active) | –
O=C(COc1ccccc1)Nc1nnc(-c2ccccc2Cl)o1 | > 150 µM (not active) | > 150 µM (not active) | – | – | EC50 (Streptokinase A): > 150 µM (not active)
COc1ccccc1N=C(S)N(Cc1ccc(C)cc1)Cc1ccccn1 | – | – | > 60 µM (not active) | 1.55 µM (active) | –
CN(C)CCCNC(=O)c1cc2c3ccccc3n(C)c2s1 | – | – | > 60 µM (not active) | 0.136 µM (active) | –
COC(=O)N1CCC2(CCN(C(=O)Nc3cccc(F)c3)CC2)CC1 | – | – | – | – | AC50 (Cytochrome P450 2C19; read-out: AC50): 5.01 µM (inconclusive)
Cc1cc(C)n2nc(SCC(=O)N/N=C/c3ccccc3F)nc2n1 | – | – | – | – | AC50 (Cytochrome P450 2C19; read-out: AC50): 20 µM (inconclusive)
CC1(C)S[C@@H]2[C@H](NC(=O)C(NC(=O)N3CCNC3=O)c3ccccc3)C(=O)N2[C@H]1C(=O)O (some centres not stated) | < 0.06 µM (active) | < 0.06 µM (active) | – | – | –
